This note sets out measurements from patent EP0562849A2, “Steroid derivatives” (priority 1992, dated 1993).

This assay relates to human LDL receptor promoter. Kind of assay: in vitro Luciferase Activity Test (LDL receptor promoter-luciferase reporter in recombinant CHO cells). The format is cell-based. Also noted: MED: unit not given here. The following applies: for Emax: Homo sapiens, CHO, read-out: MA%; for Emax / MA%: maximum activity (%) over control; for MED: minimum effective dose (molar concentration, unit not given), 24 hr, assay medium with 0.5 µg/ml 25-hydroxycholesterol; for RED: relative effective dose compared to compound of Example 4, below one = more active. How it is done:
A 1546 base pair sequence of the human LDL receptor promoter was amplified using the polymerase chain reaction. A reaction mixture containing 20 pMoles each of the synthetic oligonucleotides 5'-[…]-3' (Seq. I.D. No: 1) and 5'-AAG-[…]-3', (Seq. I.D. No:2) 1 µg human genomic DNA purified from the adenocarcinoma cell line P3UCLA, 200 µM each of dATP, dGTP, dCTP, and TTP, 2.5 units of Taq DNA polymerase, 10mM Tris-HCI pH 8.3, 50 mM KCI, […], 0.1% gelatin in a final volume of 100 µl was subjected to 30 cycles of 15 sec at 96°C, 30 sec at 55°C, and 1 min at 72°C. The material was subject to gel electrophoresis on a 1% agarose gel and the 1546 base pair band was isolated and restriction enzyme digested with Hind III and Nde I. This fragment was ligated into the plasmid pSP72 (ProMega Biotech), which had previously been restriction enzyme nuclease digested with Hind III and Nde I. The resulting vector, pNLDLRP, was restriction endonulease digested with Ndel and Hind III and the material was again run on a 1% agarose gel to reisolate the 1546 bp LDL receptor sequence.
Plasmid vector PSv2 was constructed by digesting plasmid pSv2-globin with Hind III and Bgl II then ligating an Nrul-Xhol linker into the vector. Plasmid pSv2 globin is disclosed in U.S. Patent No. 4,775,624, the entire teaching of which is herein incorporated by reference. The linker contained the following sequences: [formula] (Seq. I.D. No: 3), and [formula] ' (Seq. I.D. No:4).
The resulting vector was designated pSv2-H NXB because it contained a […], an Nrul site, an Xhol site and a Bgl site. The Hind III-Bgl II fragment of plasmid pAlc4(NRRL B-18783), which contains the firefly luciferase gene, was then ligated into the Hin III-Bgl site of plasmid pSv2-HNXB. A neomycin resistance-conforming gene was then ligated into the Bam HI site of the resultant plasmid to form plasmid pSv2.
A 1546 base pair fragment was isolated and cloned into a Ndel and Hind III (partial) restriction digested vector pSv2 containing the firefly luciferase reporter gene and a gene for neomycin resistance. The resulting vector, pLDL-Luc1 Neo-10, contains the human LDL receptor promoter driving expression of the firefly luciferase gene, a gene coding for neomycin resistance, ampicillin resistant marker and an origin of replication.
Plasmid pLDL-Luc 1 Neo-10 was used to stably transfect Chinese Hamster Ovary cells using a Lipofection Reagent kit and procedure from Gibco BRL Research Products Division Life Technologies Inc. Transformants were selected by picking individual colonies grown in Dulbecco's modified Eagle's medium supplimented with 10% fetal bovine serum and containing 500 µg per ml […]. […] Clone S27/B30 was used for subsequent screening.
In developing a cell based screen it is important to have a negative control. The viral SV40 promoter is ideal for this purpose in that it has a number of SP1 elements that enhance gene transcription. These elements are not under the control of end product repression; but they do have a high degree of sequence homology with the 16 base pair long sterol response element found in the LDL receptor promoter. The SV40 promoter should therefore be a sensitive mechanism to screen out agents that induce nonspecific transcription.
Chinese Hamster Ovary cells were stably cotransfected with a vector pSV2AL-A 5' containing the SV40 promoter driving expression of the firefly luciferase gene and a second vector pSV2 NeoBam containing a neomycin resistant marker. Transfections were carried out using the Lipofectin Reagent kit and procedure from Gibco BRL Research Products Division Life Technologies Inc. Transformants were selected by picking individual colonies grown in Dulbecco's modified Eagle's medium supplemented with 10% fetal bovine serum and containing 500 µg per ml of geneticin. Individual clones were selected, lysed and assayed for luciferase production. […]

Setting [1] is: NA is not active, 30% luciferase activity cutoff point (footnote 1).
Where [2] appears, read: tests using 30% luciferase activity cutoff point (footnote 1).
[3] abbreviates: 30% luciferase activity cutoff point (footnote 1).
Setting [4] is: 15% luciferase activity cutoff point (footnote 2).
Setting [5] is: tests using 15% luciferase activity cutoff point (footnote 2).

Several values for one entry are separate records, joined by “and”; a condition that tells them apart may be missing. Equal values may be shown once. Read-outs that look alike come from different tables or passages of the source.

On to `C/C=C/C[C@@H]1C(=O)CC[C@]2(C)[C@H]3CC[C@]4(C)[C@@H]([C@H](C)CCCC(C)(C)O)CC[C@H]4[C@@H]3CC[C@@H]12` [Example 3, [4a(E),5a]-4-(2-butenyl)-25-hydroxycholestan-3-one], for which the Emax under setting [1] stood at 144%. Under setting [2], the MED was found to be 2.2. The RED under setting [3] was 0.97.

Regarding `CCCC[C@@H]1[C@H](O)CC[C@@]2(C)[C@H]1CC[C@@H]1[C@@H]2CC[C@]2(C)[C@@H]([C@H](C)CCCC(C)C)CC[C@@H]12` [Example 7, [4a,5a]-4-butylcholestan-3a-ol], under setting [4], the Emax is 46% and the MA% turned out to be 30%.

For `C/C=C/C[C@@H]1[C@H](N)CC[C@@]2(C)[C@H]1CC[C@@H]1[C@@H]2CC[C@]2(C)[C@@H]([C@H](C)CCCC(C)C)CC[C@@H]12` [Example 8, [4a(E), 5a]-4-(2-butenyl)-3a-aminocholestone], the Emax under setting [1] is 51%. Further, under setting [2], the MED was 5.6. For the same compound, the RED under setting [3] was 2.50.

Take `C/C=C/C[C@@H]1[C@H](NC(C)=O)CC[C@@]2(C)[C@H]1CC[C@@H]1[C@@H]2CC[C@]2(C)[C@@H]([C@H](C)CCCC(C)C)CC[C@@H]12` [Example 9, [4a(E),5a]-4-(2-butenyl)-3a acetamidocholestane]: under setting [1], the Emax worked out at 60%. In addition, under setting [2], the MED amounted to 2.0. The RED under setting [3] was found to be 0.88.

In the case of `C/C=C/C[C@@H]1[C@@H](NC(C)=O)CC[C@@]2(C)[C@H]1CC[C@@H]1[C@@H]2CC[C@]2(C)[C@@H]([C@H](C)CCCC(C)C)CC[C@@H]12` [Example 10, [4a(E),5a]-4-(2-butenyl)-3b acetamidocholestane], the Emax under setting [1] was 55%. Besides, the MED under setting [2] was determined as 10.3. Further, the RED under setting [3] is 4.5.

As for `CC(C)CCC[C@@H](C)[C@H]1CC[C@H]2[C@@H]3CCC4[C@H](Cc5ccccc5)[C@H](O)CC[C@]4(C)[C@H]3CC[C@]12C` (some centres unmarked) [Example 22, 4a-benzylcholestan-3a-ol], the Emax under setting [1] was 18%.

For `CC(C)CCC[C@@H](C)[C@H]1CC[C@H]2[C@@H]3CCC4[C@H](Cc5ccc(C(F)(F)F)cc5)[C@H](O)CC[C@]4(C)[C@H]3CC[C@]12C` (some centres unmarked) [Example 26, 4a-(4-trifluoromethylbenzyl)cholestan-3a-ol], the MA% under setting [4] was 59% and 34%. Moreover, the MED under setting [5] was found to be 9.1.

As for `CC(C)CCC[C@@H](C)[C@H]1CC[C@H]2[C@@H]3CCC4[C@H](Cc5ccc(Cl)c(Cl)c5)[C@H](O)CC[C@]4(C)[C@H]3CC[C@]12C` (some centres unmarked) [Example 27, 4a-(3,4-dichlorobenzyl)cholestan-3a-ol], under setting [4], the Emax came to 32% and the RED was 4.0. In addition, the MED under setting [5] was 9.1.

With `COC(=O)c1ccc(C[C@H]2C3CC[C@H]4[C@@H]5CC[C@H]([C@H](C)CCCC(C)C)[C@@]5(C)CC[C@@H]4[C@@]3(C)CC[C@H]2O)cc1` (some centres unmarked) [Example 29, 4a-(4-methoxycarbonylbenzyl)cholestan-3a-ol], under setting [4], the Emax was 37% and the RED is recorded as 2.5. In addition, the MED under setting [5] was determined as 14.

As to `CC(C)CCC[C@@H](C)[C@H]1CC[C@H]2[C@@H]3CCC4[C@H](Cc5ccc(Cl)cc5)[C@H](O)CC[C@]4(C)[C@H]3CC[C@]12C` (some centres unmarked) [Example 31, 4a-(4-chlorobenzyl)cholestan-3a-ol], under setting [4], the Emax amounted to 46% and the RED is given as 4.3. The MED under setting [5] was determined as 9.7.

`CC(C)CCC[C@@H](C)[C@H]1CC[C@H]2[C@@H]3CCC4[C@H](Cc5ccc(OCc6ccccc6)cc5)[C@H](O)CC[C@]4(C)[C@H]3CC[C@]12C` (some centres unmarked) [Example 32, 4a-(4-benzyloxybenzyl)cholestan-3a-ol]: under setting [4], the Emax is 36% and the RED is reported as 3.8. Also, the MED under setting [5] came out at 8.6.

On to `CC(C)CCC[C@@H](C)[C@H]1CC[C@H]2[C@@H]3CCC4[C@H](Cc5ccc(CO)cc5)[C@H](O)CC[C@]4(C)[C@H]3CC[C@]12C` (some centres unmarked) [Example 33, 4a-(4-hydroxymethylbenzyl)cholestan-3a-ol], for which, under setting [4], the Emax amounted to 28% and the RED worked out at 4.3. Moreover, the MED under setting [5] was 9.8.

As for `CC(C)CCC[C@@H](C)[C@H]1CC[C@H]2[C@@H]3CCC4[C@H](Cc5ccc(C(=O)O)cc5)[C@H](O)CC[C@]4(C)[C@H]3CC[C@]12C` (some centres unmarked) [Example 34, 4a-(4-carboxybenzyl)cholestan-3a-ol], under setting [4], the Emax amounted to 38% and the RED was found to be 2.1. Also, the MED under setting [5] is reported as 4.8.

`CC(C)CCC[C@@H](C)[C@H]1CC[C@H]2[C@@H]3CCC4=C(Cc5ccccc5)[C@H](O)CC[C@]4(C)[C@H]3CC[C@]12C` [Example 38, 4-benzyl-4-cholesten-3a-ol]: under setting [4], the MA% is 33% and 58%; the RED was 7.37 and 3.7. Besides, the MED under setting [5] was 84 and 42.

Regarding `C=CC[C@H]1C2=CC[C@H]3[C@@H]4CC[C@H]([C@H](C)CCCC(C)C)[C@@]4(C)CC[C@@H]3[C@@]2(C)CC[C@H]1O` [Example 40, 4a-(2-propenyl)-5-cholesten-3a-ol], under setting [4], the Emax came to 99% and the RED is 1.0. Besides, the MA% under setting [1] is 110% and 71%. The MED under setting [5] was found to be 2.3. For the same compound, the RED under setting [3] was 0.51 and 0.52.

For `C=CC[C@@H]1[C@H](O)CC[C@@]2(C)[C@H]1CC[C@@H]1[C@@H]2CC[C@]2(C)[C@@H]([C@H](C)CCCN(C)C)CC[C@@H]12` [Example 44, 4a-(2-propenyl)-cholan-24-N,N-dimethylamino-3a-ol], under setting [4], the Emax stood at 62% and the MA% was 78%. Under setting [1], the MA% was 77% and 56%.

`C[C@H](CCCN(C)C)[C@H]1CC[C@H]2[C@@H]3CC[C@@H]4C[C@H](O)CC[C@]4(C)[C@H]3C[C@H](O)[C@]12C` [Example 50, 3a, 12a-dihydroxy-25-azacoprostane]: under setting [1], the Emax was 81% and the MA% is on record as 92%. Moreover, the MED under setting [2] is recorded as 6.2.

For `C[C@H](CCCN(C)C)[C@H]1CC[C@H]2[C@@H]3CC[C@@H]4C[C@H](O)CC[C@]4(C)[C@H]3CC[C@]12C` [Example 51, 3a-hydroxy-25-azacoprostane], the Emax under setting [4] came out at 173% and the Emax under setting [1] was 112%. In addition, the MED reads like this: under setting [5], 1.28; under setting [2], 6.4. In addition, the RED reads like this: under setting [4], 1.16; under setting [3], 1.13.

With `C[C@H](CCCN(C)C)[C@H]1CC[C@H]2[C@@H]3[C@H](O)C[C@@H]4C[C@H](O)CC[C@]4(C)[C@H]3CC[C@]12C` [Example 52, 3a,7a-dihydroxy-25-azacoprostane], under setting [1], the MA% is 121% and 85% and 136% and 86% and 84%.

In the case of `C[C@H](CCCN(C)C)[C@H]1CC[C@H]2[C@@H]3[C@H](O)C[C@@H]4C[C@H](O)CC[C@]4(C)[C@H]3C[C@H](O)[C@]12C` [Example 53, 3a,7a,12a-trihydroxy-25-azacoprostane], the MA% under setting [1] was 57% and 99%.

For the compound `C[C@H](CCCN(C)C)[C@H]1CC[C@H]2[C@@H]3[C@H](O)C[C@@H]4C[C@H](O)CC[C@]4(C)[C@H]3CC[C@]12C` [Example 54, 3a,7a-dihydroxy-25-azacoprostane], the MA% under setting [1] is 102% and 92%. Besides, the MED under setting [2] was found to be 12.3.
